# According to PMC4828312 (Journal of neurochemistry, 2016):
# How the values were obtained:
# CXCR4 = settings: cited from earlier work
# tubulin dimer = test: Surface plasmon resonance; assay type: binding, Porcine; settings: peptides injected at 10 nM – 500 µM; three independent experiments; Fig. 2D
# [1] = target: assembled MTs (containing ~25% of TUBB3); test: Surface plasmon resonance; assay type: binding, Porcine; settings: peptides injected at 10 nM – 500 µM; three independent experiments; Fig. 2D
# cortical neurons [2] = test: Length of neuronal processes; assay type: cell-based, rat; settings: gp120s (all 5 nM) in combination with Helix-A peptide or Helix-A nano (5 µM each), 24 hr; three independent experiments
# primary cortical neurons = test: Cell viability, Hoechst/PI co-staining; assay type: cell-based, rat; settings: gp120s in combination with Helix-A nano or Helix-A peptide, 24 hr; three separate experiments, n=200 neurons each group; Fig. 6A
# cortical neurons [3] = test: LDH release; assay type: cell-based, rat; settings: gp120s in combination with Helix-A nano or Helix-A peptide, 24 hr; three separate experiments; Fig. 6B
# recombinant TUBB3 = recombinant TUBB3 (Homo sapiens, UniProt Q13509); test: Surface plasmon resonance; assay type: binding; settings: peptides injected at 10 nM – 500 µM; three independent experiments; Fig. 2D
# Sequence of recombinant TUBB3 (Q13509 whole entry): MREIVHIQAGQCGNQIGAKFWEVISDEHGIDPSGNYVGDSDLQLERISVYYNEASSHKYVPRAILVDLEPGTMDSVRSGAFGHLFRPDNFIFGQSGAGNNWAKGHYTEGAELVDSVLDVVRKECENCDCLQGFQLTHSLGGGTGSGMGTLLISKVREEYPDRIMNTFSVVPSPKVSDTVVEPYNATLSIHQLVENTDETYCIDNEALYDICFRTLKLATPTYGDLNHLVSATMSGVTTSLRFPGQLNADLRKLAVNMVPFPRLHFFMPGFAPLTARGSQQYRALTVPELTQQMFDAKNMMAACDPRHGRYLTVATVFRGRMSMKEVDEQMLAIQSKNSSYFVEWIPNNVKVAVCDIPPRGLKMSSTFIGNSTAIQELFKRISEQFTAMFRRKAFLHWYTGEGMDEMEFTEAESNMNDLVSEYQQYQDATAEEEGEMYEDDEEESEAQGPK
compound,measurement,setting,value
c1cc(CN2CCCNCCNCCCNCC2)ccc1CN1CCCNCCNCCCNCC1 [AMD3100],Internalization of gp120,CXCR4; ref Bachis et al. 2003,bloked
same,gp120 toxicity,"CXCR4; ref Melli et al. 2006, Meucci et al. 1998",prevents gp120 toxicity
NDMVEQMHEDIISLWDQSLK [Helix-A],Binding of peptide to tubulin dimer by SPR,tubulin dimer,in the higher micromole range
same,Binding of peptide to assembled MTs by SPR,[1],in the higher micromole range
same,Prevention of gp120-mediated neurite pruning,cortical neurons [2],but not Helix-A peptide prevented the gp120-mediated neurite pruning
same,"Prevention of gp120-induced neuronal loss, Hoechst/PI staining",primary cortical neurons,but not Helix-A peptide abolished all neurotoxic effects of gp120
same,"Prevention of gp120-induced neuronal loss, LDH release",cortical neurons [3],but not Helix-A peptide abolished all neurotoxic effects of gp120
RAKWNNTLKQIASK [Helix-B],Binding of peptide to TUBB3 by SPR,recombinant TUBB3,but not Helix-B peptide binds to TUBB3
